Experimental findings from US20240208968A1, “ALPHA V BETA 6 AND ALPHA V BETA 1 INTEGRIN INHIBITORS AND USES THEREOF” (DiCE Molecules SV, Inc., priority 2021, published 2024) are described below.

Structures are written as SMILES. Counter-ions that a name gives are not always drawn. Where only a bound is given, the exact number is not on record here.

The term IC50 denotes the point on the concentration scale where inhibition reaches its midpoint. A lower IC50 goes with greater potency in that assay.

In assay [1] the target is αvβ6 (Homo sapiens, UniProt P06756+P18564). Put plainly: Solid Phase Integrin αvβ6 Assay. It counts as binding. The protocol: (§1) The compounds exemplified in this document were tested for their ability to inhibit αvβ1 and αvβ6 in below described solid phase integrin assays.
Solid Phase Integrin αvβ6 Assay
96-well microtiter plates (4 HBX Immulon; Thermo Fisher Scientific, Waltham, MA) were coated with 100 μL/well of 1 μg/mL recombinant TGFb1-LAP in TBS at 4° C., overnight. The coating solution was removed, and plates were blocked with 200 μL/well of blocking and binding buffer (2% BSA/TBST, 1 mM MnCl2) at room temperature for 1 hr. Blocking buffer was removed and 50 uL of binding buffer and testing compounds were added. 50 μL of diluted αvβ6 (0.2 μg/mL in binding buffer) was added to wells (100 uL/well total) and plates incubated for 1 hr at room temperature. Wells were washed thrice with washing buffer (TBS, 0.05% Tween, 1 mM MnCl2) and plates were incubated with 100 μL/well of a 1:12500) dilution of streptavidin-horseradish peroxidase conjugate (Thermo Fisher Scientific) in binding buffer for 20 min at room temperature. Bound protein was detected using the substrate TMB. The IC50 values for testing compounds were calculated by Levenberg-Marquardt four parameter fitting logistics.

The target in assay [2] is αvβ1 (Homo sapiens, UniProt P05556+P06756). Put plainly: Solid Phase Integrin αvβ1 Assay. It counts as binding. The protocol:
as §1
Solid Phase Integrin αvβ1 Assay
96-well microtiter plates (4 HBX Immulon; Thermo Fisher Scientific, Waltham, MA) were coated with 100 μL/well of 1 μg/mL recombinant TGFb1-LAP in TBS at 4° C., overnight. The coating solution was removed, and plates were blocked with 200 μL/well of blocking and binding buffer (2% BSA/TBST, 1 mM MnCl2) at room temperature for 1 hr. Blocking buffer was removed and 50 μL of binding buffer and testing compounds were added. 50 μL of diluted αvβ1 (0.2 ug/mL in binding buffer) was added to wells (100 μL/well total) for and plates incubated for 90 min at room temperature. Wells were washed thrice with washing buffer (TBS, 0.05% Tween, 1 mM MnCl2) and plates were incubated with 100 μL/well of a 1:12500 dilution of streptavidin-horseradish peroxidase conjugate (Thermo Fisher Scientific) in binding buffer for 20 min at room temperature. Bound protein was detected using the substrate TMB. The IC50 values for testing compounds were calculated by Levenberg-Marquardt four parameter fitting logistics.

Chain of αvβ1 (P06756 31-992 limits assumed): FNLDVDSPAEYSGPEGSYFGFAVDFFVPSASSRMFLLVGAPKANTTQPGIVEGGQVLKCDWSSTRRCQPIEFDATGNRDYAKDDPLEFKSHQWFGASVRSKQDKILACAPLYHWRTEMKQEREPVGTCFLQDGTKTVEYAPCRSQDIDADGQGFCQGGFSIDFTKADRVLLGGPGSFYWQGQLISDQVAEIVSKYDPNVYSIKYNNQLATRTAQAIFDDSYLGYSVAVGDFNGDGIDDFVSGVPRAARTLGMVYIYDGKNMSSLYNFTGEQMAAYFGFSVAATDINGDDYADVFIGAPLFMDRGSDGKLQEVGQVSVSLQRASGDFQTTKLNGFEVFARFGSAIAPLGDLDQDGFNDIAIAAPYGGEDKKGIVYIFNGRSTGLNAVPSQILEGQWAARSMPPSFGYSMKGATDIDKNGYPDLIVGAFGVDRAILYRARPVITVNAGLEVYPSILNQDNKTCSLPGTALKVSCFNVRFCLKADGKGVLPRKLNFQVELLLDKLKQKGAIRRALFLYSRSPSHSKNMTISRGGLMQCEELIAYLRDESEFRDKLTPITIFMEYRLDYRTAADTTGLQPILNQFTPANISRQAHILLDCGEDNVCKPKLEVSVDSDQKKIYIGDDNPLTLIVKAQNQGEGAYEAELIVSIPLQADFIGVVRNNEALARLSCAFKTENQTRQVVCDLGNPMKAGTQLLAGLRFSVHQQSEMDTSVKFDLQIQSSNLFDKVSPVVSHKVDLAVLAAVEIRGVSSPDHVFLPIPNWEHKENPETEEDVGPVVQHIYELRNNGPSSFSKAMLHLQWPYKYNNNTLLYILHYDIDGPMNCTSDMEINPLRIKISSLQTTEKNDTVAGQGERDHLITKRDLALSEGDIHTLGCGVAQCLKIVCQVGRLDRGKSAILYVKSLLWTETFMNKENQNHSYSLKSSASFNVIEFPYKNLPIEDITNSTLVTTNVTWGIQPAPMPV
Chain of αvβ1 (P05556 21-728 limits assumed): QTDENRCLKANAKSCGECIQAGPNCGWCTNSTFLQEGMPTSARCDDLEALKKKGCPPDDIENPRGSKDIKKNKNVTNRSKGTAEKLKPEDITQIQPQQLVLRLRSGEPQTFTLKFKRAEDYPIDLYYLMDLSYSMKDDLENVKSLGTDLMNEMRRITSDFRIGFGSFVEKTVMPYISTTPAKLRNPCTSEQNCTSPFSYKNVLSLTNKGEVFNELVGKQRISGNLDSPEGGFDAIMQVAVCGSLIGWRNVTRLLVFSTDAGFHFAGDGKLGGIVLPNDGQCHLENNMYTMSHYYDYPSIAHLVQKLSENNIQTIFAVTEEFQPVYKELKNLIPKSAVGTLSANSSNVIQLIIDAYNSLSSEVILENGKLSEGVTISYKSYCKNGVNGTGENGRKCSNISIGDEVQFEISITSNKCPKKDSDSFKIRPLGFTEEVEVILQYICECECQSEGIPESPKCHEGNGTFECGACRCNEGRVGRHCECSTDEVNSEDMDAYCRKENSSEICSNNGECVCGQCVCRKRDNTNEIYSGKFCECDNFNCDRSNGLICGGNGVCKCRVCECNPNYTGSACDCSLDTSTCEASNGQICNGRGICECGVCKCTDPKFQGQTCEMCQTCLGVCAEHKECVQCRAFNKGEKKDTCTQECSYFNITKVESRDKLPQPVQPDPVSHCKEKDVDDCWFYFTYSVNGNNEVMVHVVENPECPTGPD
Chain of αvβ6 (P06756 31-992 limits assumed): as the sequence (P06756 31-992 limits assumed) above
Chain of αvβ6 (P18564 22-707 limits assumed): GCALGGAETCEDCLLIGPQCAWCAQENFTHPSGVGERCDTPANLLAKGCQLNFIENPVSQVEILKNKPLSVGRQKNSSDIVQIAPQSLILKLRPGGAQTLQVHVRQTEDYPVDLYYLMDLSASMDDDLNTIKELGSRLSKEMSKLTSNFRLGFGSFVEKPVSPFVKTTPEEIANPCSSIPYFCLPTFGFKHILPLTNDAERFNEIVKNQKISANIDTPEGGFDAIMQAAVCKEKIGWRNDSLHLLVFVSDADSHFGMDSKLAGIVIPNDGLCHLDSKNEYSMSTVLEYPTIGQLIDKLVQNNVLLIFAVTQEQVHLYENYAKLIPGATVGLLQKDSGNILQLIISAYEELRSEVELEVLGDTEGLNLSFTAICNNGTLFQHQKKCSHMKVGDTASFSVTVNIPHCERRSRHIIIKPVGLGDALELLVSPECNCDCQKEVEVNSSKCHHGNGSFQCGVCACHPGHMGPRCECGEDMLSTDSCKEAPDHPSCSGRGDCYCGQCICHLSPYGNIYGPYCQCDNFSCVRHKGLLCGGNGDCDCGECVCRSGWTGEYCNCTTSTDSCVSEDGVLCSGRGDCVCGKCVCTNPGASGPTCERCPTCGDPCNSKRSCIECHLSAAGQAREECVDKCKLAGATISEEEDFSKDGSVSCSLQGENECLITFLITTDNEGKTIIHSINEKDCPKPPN

As for `O=C(O)C[C@H](NC(=O)[C@@H]1CCCN(CCCc2ccc3c(n2)NCCC3)C1)c1cccc(C(F)(F)F)c1` (single isomer, unassigned) [Compound 203-A, hydrochloride], the IC50 in assay [1] is 100 to 1000 nM; in assay [2], above 1000 nM.
In the same order, the values of `O=C(O)C[C@@H](NC(=O)[C@@H]1CCCN(CCCc2ccc3c(n2)NCCC3)C1)c1cccc(C(F)(F)F)c1` (single isomer, unassigned) [Compound 203-B, hydrochloride] are below 100 nM and below 100 nM.
In the same order, the values of `O=C(O)C[C@@H](NC(=O)[C@@H]1CCCN(CCCc2ccc3c(n2)NCCC3)C1)c1ccc2c(c1)CCCC2` (single isomer, unassigned) [Compound 204-B] are below 100 nM and below 100 nM.
For `O=C(O)C[C@H](NC(=O)[C@@H]1CCCN(CCCc2ccc3c(n2)NCCC3)C1)c1cccc(N2CC3CCC2CO3)c1` (single isomer, unassigned) [Compound 241-A], in that order: below 100 nM and below 100 nM.
Regarding `O=C(O)C[C@H](NC(=O)[C@@H]1CCCN(CCCc2ccc3c(n2)NCCC3)C1)c1cccc(N2CC3CCC2CO3)c1` (single isomer, unassigned) [Compound 241-B], the IC50 in assay [1] and in assay [2] was below 100 nM throughout.
Turning to `O=C(O)C(CNC(=O)[C@@H]1CCCN(CCCc2ccc3c(n2)NCCC3)C1)c1ccc(C2CC2)cc1` (single isomer, unassigned) [Compound 259-B], the IC50 in assay [1] was 100 to 1000 nM; in assay [2], below 100 nM.
For `O=C(O)C[C@H](NC(=O)[C@@H]1CCCN(CCCc2ccc3c(n2)NCCC3)C1)c1ccc2c(c1)CCC2` [Compound 201-A, 3-(2,3-dihydro-1H-inden-5-yl)-3-((R)-1-(3-(5,6,7,8-tetrahydro-1,8-naphthyridin-2-yl)propyl)piperidine-3-carboxamido)propanoic acid hydrochloride], the IC50 in assay [1] was below 100 nM; in assay [2], 100 to 1000 nM.
For `O=C(O)C[C@@H](NC(=O)[C@@H]1CCCN(CCCc2ccc3c(n2)NCCC3)C1)c1ccc2c(c1)CCC2` [Compound 201-B, 3-(2,3-dihydro-1H-inden-5-yl)-3-((R)-1-(3-(5,6,7,8-tetrahydro-1,8-naphthyridin-2-yl)propyl)piperidine-3-carboxamido)propanoic acid hydrochloride], in that order: below 100 nM and below 100 nM.
In the same order, the values of `O=C(O)C[C@H](NC(=O)[C@@H]1CCCN(CCCc2ccc3c(n2)NCCC3)C1)c1ccccc1` [Compound 202, (S)-3-phenyl-3-((R)-1-(3-(5,6,7,8-tetrahydro-1,8-naphthyridin-2-yl)propyl)piperidine-3-carboxamido)propanoic acid hydrochloride] are below 100 nM and below 100 nM.
In the same order, the values of `O=C(O)C[C@H](NC(=O)[C@@H]1CCCN(CCCc2ccc3c(n2)NCCC3)C1)c1ccc2c(c1)CCCC2` [Compound 204-A, 3-((R)-1-(3-(5,6,7,8-tetrahydro-1,8-naphthyridin-2-yl)propyl)piperidine-3-carboxamido)-3-(5,6,7,8-tetrahydronaphthalen-2-yl)propanoic acid] are below 100 nM and below 100 nM.
With `O=C(O)C[C@H](NC(=O)[C@@H]1CCCN(CCCc2ccc3c(n2)NCCC3)C1)c1cccc(Br)c1` [Compound 205, (S)-3-(3-bromophenyl)-3-((R)-1-(3-(5,6,7,8-tetrahydro-1,8-naphthyridin-2-yl)propyl)piperidine-3-carboxamido)propanoic acid hydrochloride], the IC50 in assay [1] and in assay [2] was below 100 nM each time.
For the compound `CC1(C)CN(c2cccc([C@@H](NC(=O)[C@@H]3CCCN(CCCc4ccc5c(n4)NCCC5)C3)C(F)(F)C(=O)O)c2)CCO1` [Compound 300, (R)-3-(3-(2,2-dimethylmorpholino)phenyl)-2,2-difluoro-3-((R)-1-(3-(5,6,7,8-tetrahydro-1,8-naphthyridin-2-yl)propyl)piperidine-3-carboxamido)propanoic acid], the IC50 in assay [2] was below 100 nM.
Consider `O=C(N[C@@H](CNC(=O)[C@@H]1CCCN(CCCc2ccc3c(n2)NCCC3)C1)C(=O)O)c1c(F)cccc1F` [Compound 310], for which the IC50 in assay [1] was in the range of 100 to 1000 nM.
The same measure, in the same setting: the same measure for `O=C(NC[C@@H](C(=O)O)c1ccc(-c2ccccc2)cc1)[C@@H]1CCCN(CCCc2ccc3c(n2)NCCC3)C1` [Compound 343]: below 100 nM; for `O=C(N[C@@H](CNC(=O)[C@@H]1CCCN(CCCc2ccc3c(n2)NCCC3)C1)C(=O)O)c1cccc(C2CC2)c1` [Compound 370]: below 100 nM.
For `CC(C)CNC(=O)[C@@H]1CCCC[C@H]1C(=O)N[C@@H](CNC(=O)[C@@H]1CCCN(CCCc2ccc3c(n2)NCCC3)C1)C(=O)O` [Compound 526], the IC50 in assay [2] is below 100 nM.
On the same count and under the same terms, the same measure for `O=C(O)C[C@H](NC(=O)[C@@H]1CCCN(CCCc2ccc3c(n2)NCCC3)C1)c1cccc(-n2cccn2)c1` [Compound 537]: below 100 nM.
Consider `O=C(Cc1ccccc1Cl)N[C@@H](CNC(=O)[C@@H]1CCCN(CCCc2ccc3c(n2)NCCC3)C1)C(=O)O` [Compound 545], for which, in assay [1], the IC50 was below 100 nM.
The same measure, in the same setting: the same measure for `O=C(N[C@@H](CNC(=O)[C@@H]1CCCN(CCCc2ccc3c(n2)NCCC3)C1)C(=O)O)c1ccc2c(c1)CCC2` [Compound 548]: below 100 nM; for `O=C(Cc1ccccc1)N[C@@H](CNC(=O)[C@@H]1CCCN(CCCc2ccc3c(n2)NCCC3)C1)C(=O)O` [Compound 550]: below 100 nM.
With `O=C(O)C[C@H](NC(=O)[C@@H]1CCCN(CCCc2ccc3c(n2)NCCC3)C1)c1cc(F)cc(C2CC2)c1` [Compound 558], in assay [2], the IC50 was below 100 nM.
In the case of `O=C(NC[C@H](Nc1cc(-c2ccccc2)ncn1)C(=O)O)[C@@H]1CCCN(CCCc2ccc3c(n2)NCCC3)C1` [Compound 564], in assay [1], the IC50 is below 100 nM.
Same read-out and setting: the value for `O=C(NC[C@H](Nc1ccccc1C1CC(F)(F)C1)C(=O)O)[C@@H]1CCCN(CCCc2ccc3c(n2)NCCC3)C1` [Compound 590] was below 100 nM.
`O=C(NC[C@H](Nc1cccnc1C1CC(F)(F)C1)C(=O)O)[C@@H]1CCCN(CCCc2ccc3c(n2)NCCC3)C1` [Compound 591] displayed an IC50 in assay [1] below 100 nM.
Same read-out and setting: the same measure for `O=C(NC[C@H](Nc1cccc(C2CC(F)(F)C2)c1)C(=O)O)[C@@H]1CCCN(CCCc2ccc3c(n2)NCCC3)C1` [Compound 592]: below 100 nM; for `CC1(C)CN(c2cccc([C@H](CNC(=O)[C@@H]3CCCN(CCCc4ccc5c(n4)NCCC5)C3)C(=O)O)c2)CCO1` [Compound 594]: 100 to 1000 nM.
Same read-out and setting: the value for `CC1(C)COCCN1c1cccc([C@H](CNC(=O)[C@@H]2CCCN(CCCc3ccc4c(n3)NCCC4)C2)C(=O)O)c1` [Compound 596] was below 100 nM; that for `CC1(C)CCCN(c2cccc([C@H](CNC(=O)[C@@H]3CCCN(CCCc4ccc5c(n4)NCCC5)C3)C(=O)O)c2)C1` [Compound 598] was above 1000 nM; that for `CC1(C)CCN(c2cccc([C@H](CNC(=O)[C@@H]3CCCN(CCCc4ccc5c(n4)NCCC5)C3)C(=O)O)c2)CC1` [Compound 600] was 100 to 1000 nM.
On the same count and under the same terms, the value for `C[C@@H]1CN(c2cccc([C@H](CNC(=O)[C@@H]3CCCN(CCCc4ccc5c(n4)NCCC5)C3)C(=O)O)c2)C[C@H](C)O1` [Compound 602] was 100 to 1000 nM.
